*1 amine or outer side, *2 acyl side, *3 side chain or, on linkers, in order; H or OH if unused. Where a SMILES comes first, the peptide text is derived from it. [ ]: non-standard residue; d: D form. Cha = N[C@@H](CC1CCCCC1)C(=O)O; Suc = O=C(CCC(=O)[*:2])[*:1]
System: Fibrin-Clot
Test: Fibrin-Clot Inhibition
Format: biochemical

IC50 [µM] | Compound
1.8 | CC[C@H](C)[C@H](NC(=O)[C@H](CC(=O)O)NC(=O)[C@H](CC(=O)O)NC(=O)[C@H](CC(C)C)NC(=O)[C@H](CO)NC(=O)[C@H](Cc1ccccc1)NC(=O)[C@@H]1CCCN1C(=O)[C@H](CCC(=O)O)NC(=O)[C@H](Cc1ccccc1)NC(=O)CCC(=O)O)C(=O)N[C@@H](CCC(=O)O)C(=O)N[C@@H](CCC(N)=O)C(=O)O [Example 5, Suc-Phe-Glu-Pro-Phe-Ser-Leu-Asp-Asp-Ile-Glu-Gln-OH] (Suc-FEPFSLDDIEQ-OH)
2.7 | CC[C@H](C)[C@H](NC(=O)[C@H](CC(=O)O)NC(=O)[C@H](CC(=O)O)NC(=O)[C@H](CC(C)C)NC(=O)[C@H](CO)NC(=O)[C@H](Cc1ccccc1)NC(=O)[C@H](CCC(=O)O)NC(=O)[C@H](CCC(=O)O)NC(=O)[C@H](Cc1ccccc1)NC(=O)CCC(=O)O)C(=O)N[C@@H](CCC(=O)O)C(=O)N[C@@H](CCC(N)=O)C(=O)O [Example 4, Suc-Phe-Glu-Glu-Phe-Ser-Leu-Asp-Asp-Ile-Glu-Gln-OH] (Suc-FEEFSLDDIEQ-OH)
7.1 | CC(C)C[C@H](NC(=O)[C@H](CO)NC(=O)[C@H](Cc1ccccc1)NC(=O)[C@H](CCC(=O)O)NC(=O)[C@H](CCC(=O)O)NC(=O)[C@H](Cc1ccccc1)NC(=O)CCC(=O)O)C(=O)N[C@@H](CC(=O)O)C(=O)N[C@@H](CC(=O)O)C(=O)N[C@@H](CC1CCCCC1)C(=O)N[C@@H](CCC(=O)O)C(=O)N[C@@H](CCC(N)=O)C(=O)O [Example 7, Suc-Phe-Glu-Glu-Phe-Ser-Leu-Asp-Asp-Cha-Glu-Gln-OH] (Suc-FEEFSLDD[Cha]EQ-OH)
2.3 | CC[C@H](C)[C@H](NC(=O)[C@H](CC(=O)O)NC(=O)[C@H](CC(=O)O)NC(=O)[C@H](CC(C)C)NC(=O)[C@@H]1CCCN1C(=O)[C@@H](Cc1ccccc1)NC(=O)[C@H](CCC(=O)O)NC(=O)[C@H](CCC(=O)O)NC(=O)[C@H](Cc1ccccc1)NC(=O)CCC(=O)O)C(=O)N[C@@H](CCC(=O)O)C(=O)N[C@@H](CCC(N)=O)C(=O)O [Example 6, Suc-Phe-Glu-Glu-phe-Pro-Leu-Asp-Asp-Ile-Glu-Gln-OH] (Suc-FEE[dF]PLDDIEQ-OH)
